# Data taken from patent publication US20200230126A1, “TARGETED THERAPEUTICS” (TARVEDA THERAPEUTICS, INC., priority 2017, published 2020).
# What was measured:
# tumor cells = test: DNA double-strand breaks in tumor cells; type: cell-based; conditions: treatment of tumor cells
# Protocol: The histone H2A variant H2AX (γ-H2AX) is an indicator of DNA double-strand breaks and is a sensitive marker of DNA damage response. During the DNA damage response, double-stranded breaks (DSB) are generated that result in the rapid phosphorylation of γ-H2AX. […] These DSBs can be quantitated by measuring γ-H2AX levels. In in vivo pharmacology studies, PDc response to SDC-TRAP-0063 was assessed by immunostaining for γ-H2AX and was associated with anti-tumor activity of SDC-TRAP-0063. γ-H2AX has been used in clinical studies to monitor DNA damage induced by topoisomerase I inhibition, ionizing radiation, or Weel inhibition. During Phase 1 only, for patients who sign the provision of optional tumor biopsies and hair follicle collections, levels of γ-H2AX are evaluated in paired tumor biopsies and hair follicles to check for evidence of SDC-TRAP-0063-induced DNA damage response. Based on the mechanism of action of SDC-TRAP-0063, it would be expected that evidence of DNA damage, as measured by γ-H2AX and/or other markers of DNA damage, would be greater in tumor tissue compared to hair follicle. It is estimated that 10 high quality pairs of tumor biopsies and hair follicles are needed to adequately explore the relationship between SDC-TRAP-0063 treatment and DNA damage response.
# [1] = pH-dependent equilibrium of lactone ring and open chain carboxylic acid form in solution; type: physicochemical
# Text: In solution, SDC-TRAP-0063 contains a lactone ring at pH-dependent equilibrium with the corresponding open chain carboxylic acid form.
# Exposure in mice = conditions: mouse, in vivo, 20 mg/kg dose
# Protocol: (§1) Exposures achieved in these toxicology studies exceed the levels anticipated to show anti-tumor activity, based on anti-tumor efficacy determined in mice. The minimum dose for anti-tumor efficacy in mice xenografts was determined to be 20 mg/kg with once weekly administration. […] This exposure is similar to that in rats at the STD10 in the GLP toxicology study where the AUCt values determined were 107 and 68 μg·h/mL in males and female rats, respectively. The mouse exposure is lower that the exposure at the HNSTD in dogs, 181 and 183 μg·h/mL in male and female dogs, respectively. Using body surface area, the dog HNSTD for SDC-TRAP-0063 is 6.6-fold higher than the minimum dose for efficacy in the mouse while the rat STD10 is 3 fold higher.
# [2] = Repeat dose GLP toxicity study in rats; type: in vivo, rat; conditions: for AUC(0-t): in vivo, 30 mg/kg, at the STD10 in the GLP toxicology study
# Protocol: (§2) The SDC-TRAP-0063 selected starting dose is 30 mg IV on D1, D8, and D15 of each 28-day cycle. ICH S9 recommends that a starting clinical dose for a first-in-human study should be either 1/10th of the STD10 in rodent toxicity studies or ⅙th of the HNSTD in non-rodent toxicity studies.
# (§3) Based on the findings in the repeat dose GLP toxicity study in rats, the dose of one-tenth the rat STD10 gives a Human Equivalent Dose (HED) of 0.48 mg/kg informing the SDC-TRAP-0063 first-in-human starting dose (Table 10). The calculation based on the dog highest non-severe toxic dose (HNSTD) of 20 mg/kg determined in the repeat dose GLP toxicity study in dogs is shown in Table 11 and results in a higher HED of 1.9 mg/kg substantiating that rat is the more sensitive species. The human starting dose of 0.48 mg/kg is equivalent to 18 mg/m^2. Assuming an average human weight of 60 kg, the starting dose translates to 29 mg or using an average body surface area of 1.7 m^2, the starting dose is 30 mg.
# [3] = Repeat dose GLP toxicity study in dogs; type: in vivo, dog; conditions: for AUC(0-t): in vivo, 20 mg/kg, at the HNSTD, read-out: exposure (AUCt)
# Protocol: as §2, §3
# mice xenografts = test: Anti-tumor efficacy in mice xenografts; type: in vivo, mouse; conditions: once weekly administration
# Protocol: as §1
# [4] = Light sensitivity of the diluted solution; type: physicochemical; conditions: duration of 6 hours
# Text: The diluted solution is attached to an infusion set free of diethylhexyl-phthalate (DEHP) and containing a 0.2 micron filter.
# [5] = mg/kg human dose multiplied by 37
compound,measurement,setting,value
CCc1c2c(nc3ccc(OC(=O)N4CCC(CCn5ccc6cc(-n7c(O)nnc7-c7cc(C(C)C)c(O)cc7O)ccc65)CC4)cc13)-c1cc3c(c(=O)n1C2)COC(=O)[C@]3(O)CC [SDC-TRAP-0063],DNA double-stranded breaks (DSBs),tumor cells,induces DNA DSBs
same,pKa,[1],9.3
same,AUC(0-t),Exposure in mice,112 µg·h/mL
same,HED of 1/10 Rat STD10,[2]; 1/10 rat STD10 divided by 6.2 (60 kg human),0.48 mg/kg
same,Rat 1/10 STD10,[2]; mg/kg dose in rat multiplied by 6,18 mg/m^2
same,HED of 1/10 Rat STD10,[2]; [5],18 mg/m^2
same,1/10 Rat STD10,[2]; rat,3.0 mg/kg
same,AUC(0-t),"[2]; rat, female rats",68 µg·h/mL
same,AUC(0-t),"[2]; rat, male rats",107 µg·h/mL
same,Rat STD10,[2]; repeat dose GLP toxicity study in rats,30 mg/kg
same,rat STD10 relative to the minimum dose for efficacy in the mouse,[2]; using body surface area,3 fold
same,HED of 1/6 Dog HNSTD,[3]; 1/6 dog HNSTD divided by 1.8 (60 kg human),1.9 mg/kg
same,1/6 Dog HNSTD,[3]; dog,3.3 mg/kg
same,AUC(0-t),"[3]; dog, female dogs",183 µg·h/mL
same,AUC(0-t),"[3]; dog, male dogs",181 µg·h/mL
same,Dog 1/6 HNSTD,[3]; mg/kg dose in dog multiplied by 20,67 mg/m^2
same,HED of 1/6 Dog HNSTD,[3]; [5],69 mg/m^2
same,Dog HNSTD,[3]; repeat dose GLP toxicity study in dogs,20 mg/kg
same,dog HNSTD relative to the minimum dose for efficacy in the mouse,[3]; using body surface area,6.6 fold
same,minimum dose for anti-tumor efficacy,mice xenografts,20 mg/kg
same,light sensitivity of the diluted solution,[4],not light sensitive
